According to patent publication US20250074966A1, “AGENTS AND METHODS FOR PREVENTING OR INHIBITING ADAPTIVE IMMUNE RESPONSES ASSOCIATED WITH MULTIPLE SCLEROSIS” (Adaptive Biotechnologies Corporation, priority 2023, published 2025):

Test system: ZO-1
Experiment: Primary human T cells transfected with TCRs co-cultured overnight with HLA-DRB1*15:01 positive K562 target cells expressing antigen-encoding constructs, T cell activation via CD137 expression
Format: cell-based
Settings: antigen-encoding construct delivered as IVT RNA to K562 cells

Sequence: MEETAIWEQHTVTLHRA [ZO-1]
- processing and presentation of the antigen by HLA-DRB1*15:01 positive target cells: processed and presented
